Here are results for one substance from patent US20060110804A1, “Method of treating an organ for transplantation” (priority 2004, published 2006).

The test system of assay [1] is liver grafts. Briefly: LDH released into hepatic venous perfusate of ex vivo reperfused liver grafts (liver cell damage). Details: species or system rat. Conditions: hemin-treated control, 16-hour cold preservation (Hemin/C16), no ZnPP. On the procedure:
As in the case of Example 5, after being cold-preserved for 16 hours, the hemin-treated grafts were reperfused for 30 minutes in the presence of ZnPP using reperfusate containing varying concentrations of bilirubin, and then measured for the amount of lactate dehydrogenase (LDH) released into the hepatic venous perfusate, which was indicative of liver cell damage in the grafts. For use as controls, hemin-untreated grafts receiving 16-hour cold preservation (C16) and hemin-treated grafts receiving 16-hour cold preservation (Hemin/C16) were provided in the absence of ZnPP. The amount of LDH was measured as described in an earlier document (see Document 24). […] The grafts were divided into the following test groups: (a) receiving 5 minute reperfusion with the bilirubin-containing buffer and subsequent 35 minute reperfusion in the absence of bilirubin, (b) receiving 15 minute reperfusion with the bilirubin-containing buffer and subsequent 25 minute reperfusion in the absence of bilirubin, and (c) receiving 40 minute perfusion with the bilirubin-containing buffer. As a control group (d), the cold-preserved grafts received only bilirubin-free perfusion for 40 minutes. Bile output was then measured over time for each group. Further, FIGS. 6(B) and (C) show the relationship between reperfusion time with the bilirubin-containing buffer and bile output from the grafts and the relationship between reperfusion time and venous LDH concentration, respectively.

Another assay relates to HO-1 protein. Description: HO-1 protein expression in liver grafts by Western blot analysis. More on the design: species or system rat. Conditions: hemin-treated (40 μmol/kg i.p.) vs hemin-untreated grafts. On the procedure:
(§1) Male Wistar rats of 190-230 g were allowed to take pellet chow and water without any restriction and then fasted for 6 hours. Subsequently, the rats were intraperitoneally injected with 40 μmol/kg hemin, a strong HO-1 inducer, and then fasted for 18 hours. […] As a hemin-untreated control, rats injected with physiological saline were fasted for 24 hours and then used for the experiment.
(§2) The rats injected with hemin or physiological saline were anesthetized by intraperitoneal injection of pentobarbital sodium (40 mg/kg body weight) and a PE-10 catheter for bile sample collection was inserted into the common bile duct of each rat. A 16-gauge catheter was inserted into the portal vein and 20 ml lactated Ringer's solution kept at 4° C. was passed through the catheter. Subsequently, rat livers were perfused with 20 ml University of Wisconsin solution (UW solution) of 4° C., excised and then preserved in the same solution at 4° C. for 16 hours. […]
(§3) The grafts prepared in Example 1 were measured for HO-1 protein expression by Western blot analysis, as described in an earlier document (see Document 20). CO fluxes in hepatic venous flow were also measured with a spectrophotometer according to a previously reported method of the inventors (see Document 16). […]
A general note: A western blot detects proteins with antibodies after separation by electrophoresis.

The conditions of assay [2]: hemin-treated rats, n=4; cited from earlier work.
Assay [3] has as its system liver grafts. Description: CO fluxes in hepatic venous perfusate of ex vivo liver grafts (spectrophotometer). More on the design: species or system rat. Here is the method:
as §1, §2, §3

The subject of assay [4] is liver grafts. Description: Bile output of cold-preserved liver grafts during ex vivo reperfusion. More on the design: species or system rat.
Procedure: The rats injected with hemin or physiological saline were anesthetized by intraperitoneal injection of pentobarbital sodium (40 mg/kg body weight) and a PE-10 catheter for bile sample collection was inserted into the common bile duct of each rat. A 16-gauge catheter was inserted into the portal vein and 20 ml lactated Ringer's solution kept at 4° C. was passed through the catheter. Subsequently, rat livers were perfused with 20 ml University of Wisconsin solution (UW solution) of 4° C., excised and then preserved in the same solution at 4° C. for 16 hours. […] After cold preservation for 16 hours, each liver graft was reperfused via the portal vein with 95% oxygen-5% carbon dioxide-saturated Krebs-Henseleit buffer (pH 7.4, 37° C.) at 4 ml/min/g liver in the presence of 30 μmol/L sodium taurocholate (see Document 4).
In the hemin-treated liver grafts from Example 1, after 16-hour cold preservation (Hemin/C16), bile samples were collected from the common bile duct every 5 minutes during 40 minute reperfusion. […] The hemin-untreated grafts receiving no cold preservation (Control) and 16-hour cold preservation (C16) were also provided for the same measurement.
The grafts were reperfused with carbogen-saturated Krebs-Henseleit buffer (pH 7.4, 37° C.) supplemented with bilirubin (Sigma Chemical, Co.) and/or CO in combination with 1 μmol/L ZnPP. […] Similarly, hemin-untreated (a) and hemin-treated (b) grafts were provided in the absence of ZnPP for use as controls.
The same experiment as described in Example 4 was repeated, except that the doses of bilirubin and/or CO were varied. After being cold-preserved for 16 hours, the hemin-treated grafts were reperfused for 30 minutes in the presence of ZnPP using reperfusate containing various concentrations of bilirubin and/or CO, and then measured for the levels of bile output, bile salts and phospholipids in bile from the grafts, which were determined in percentages relative to those obtained by reperfusion in the absence of ZnPP.
Assay [5] concerns liver grafts. Briefly: Bilirubin-IXα concentration in bile of ex vivo reperfused liver grafts (ELISA, antibody 24G7). Conditions: hemin-treated, cold-preserved 16 hours, reperfused 30 minutes. Details: species or system rat. On the procedure: as §2, with “hours. Since acute oxidative stress would eventually occur, as judged by intracellular hydroperoxide production which occurred concurrently with a reduction of bile formation, a time period of 16 hours was selected for preservation purposes.” for “hours.”
In the hemin-treated liver grafts from Example 1, after 16-hour cold preservation (Hemin/C16), bile samples were collected from the common bile duct every 5 minutes during 40 minute reperfusion. The bile samples collected at 30 minutes after initiation of reperfusion were also measured for their bilirubin-IXα concentration by enzyme-linked immunosorbent assay detection using the monoclonal antibody 24G7 capable of recognizing both conjugated and unconjugated bilirubin fractions, as described in earlier documents (see Documents 21 and 22). […]
On the technique in general: An ELISA detects its analyte on a solid surface through an enzyme-linked reagent.

Entries after “also recorded” stand apart in the source; their conditions may differ.

For the substance hemin, in the assay with liver grafts [1], the “venous LDH release” value is recorded as “almost complete inhibition”. For the same substance, the HO-1 expression entry with HO-1 protein is “significant increases”. Also, the “plasma bilirubin concentration in portal blood” value in assay [2] was 3.2 ± 0.8 µmol/L. The “venous CO fluxes” value in the assay with liver grafts [3] (hemin-treated (40 μmol/kg i.p.) vs hemin-untreated grafts) is recorded as “significant increases”. Moreover, the “increase in hepatic venous CO fluxes” value with liver grafts [3] (hemin-treated grafts, 16-hour cold preservation with or without 30 minute reperfusion, vs hemin-untreated grafts) was ~3 fold. The bile output result in the assay on liver grafts [4] (hemin-treated grafts after 16-hour cold preservation (Hemin/C16) vs hemin-untreated cold-preserved grafts (C16)) is reported as “higher plateau; also recorded: increase in bile output”. Also, in the assay on liver grafts [4] (hemin-treated grafts, 16-hour cold preservation (Hemin/C16)), the “time of bile output recovery after initiation of reperfusion” value was found to be 10 min. In addition, the “bilirubin fluxes in bile, relative to hemin-untreated group” value in the assay with liver grafts [5] is “about 1.5 fold”.
